Assay results from BindingDB's records for patent US20230303494 (Academy of Military Medical Sciences, 2023).

Molecular target: Programmed cell death 1 ligand/protein 1 (Homo sapiens, UniProt Q9NZQ7+Q15116)
Experiment: Activity of Compounds to Inhibit PD-1/PD-L1 Interaction

Chain of Programmed cell death 1 ligand/protein 1 (Q9NZQ7 whole entry): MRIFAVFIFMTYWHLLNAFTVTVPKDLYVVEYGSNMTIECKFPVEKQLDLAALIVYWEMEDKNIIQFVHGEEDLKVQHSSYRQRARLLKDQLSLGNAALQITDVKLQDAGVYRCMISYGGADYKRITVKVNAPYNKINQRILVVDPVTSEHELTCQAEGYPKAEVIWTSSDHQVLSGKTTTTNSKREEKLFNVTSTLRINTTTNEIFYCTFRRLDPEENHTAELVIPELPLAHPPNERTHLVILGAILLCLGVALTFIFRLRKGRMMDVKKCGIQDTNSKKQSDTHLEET
Chain of Programmed cell death 1 ligand/protein 1 (Q15116 whole entry): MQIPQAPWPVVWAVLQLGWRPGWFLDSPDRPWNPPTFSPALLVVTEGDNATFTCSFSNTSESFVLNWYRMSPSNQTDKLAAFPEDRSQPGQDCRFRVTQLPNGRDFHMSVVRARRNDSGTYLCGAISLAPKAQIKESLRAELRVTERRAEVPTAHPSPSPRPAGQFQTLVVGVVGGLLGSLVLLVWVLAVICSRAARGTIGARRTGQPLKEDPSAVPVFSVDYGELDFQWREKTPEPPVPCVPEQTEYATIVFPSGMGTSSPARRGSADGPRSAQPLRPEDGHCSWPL

SMILES	IC50 [µM]
Cc1cc(CNC(CO)C(=O)O)c(OCc2cncc(C#N)c2)cc1NCc1cccc(-c2ccccc2)c1Br (stereo unspecified) [US20230303494, Compound 32]	0.031
N#Cc1cncc(COc2cc(NCc3cccc(-c4ccccc4)c3Br)ccc2CNC(CO)C(=O)O)c1 (stereo unspecified) [US20230303494, Compound 31]	0.206
COc1cc(NCc2cccc(-c3ccccc3)c2C)c(C)cc1CNC(CO)C(=O)O (stereo unspecified) [US20230303494, Compound 14]	0.253
Cc1cc(CNC(CO)C(=O)O)c(OCc2cncc(C#N)c2)cc1NCc1cccc(-c2ccc3c(c2)OCCO3)c1C (stereo unspecified) [US20230303494, Compound 35]	0.044
Cc1c(CNc2cc(OCc3cncc(C#N)c3)c(CNC(CO)C(=O)O)cc2Cl)cccc1-c1ccc2c(c1)OCCO2 (stereo unspecified) [US20230303494, Compound 36]	0.131
Cc1c(CNc2cc(OCc3cncc(C#N)c3)c(CNC(CO)C(=O)O)cc2Cl)cccc1-c1ccccc1 (stereo unspecified) [US20230303494, Compound 13]	0.026
